Laboratory results taken from PubChem BioAssay (NCI).
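Briefly, cells in 96-well plates were exposed to five compound concentrations for 48 h, and endpoints were estimated by linear interpolation. At the GI50, growth is halved. The concentration for full growth arrest is given as TGI.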

Experiments:
Assay in all cases: NCI tumour cell line growth inhibition, 48 h
[1] = tested on: OVCAR-8 ovarian
[2] = tested on: SK-MEL-2 melanoma
[3] = tested on: CAKI-1 renal
[4] = tested on: SNB-75 CNS
[5] = tested on: HT29 colon
[6] = tested on: MALME-3M melanoma
[7] = tested on: SF-295 CNS
[8] = tested on: K-562 leukemia
[9] = tested on: NCI-H226 lung
[10] = tested on: SR leukemia

SMILES | TGI [1] | TGI [2] | TGI [3] | TGI [4] | TGI [5] | TGI [6] | TGI [7] | TGI [8] | GI50 [1] | GI50 [2] | GI50 [3] | GI50 [4] | GI50 [5] | GI50 [9] | TGI [9] | GI50 [6] | GI50 [7] | GI50 [8] | TGI [10] | GI50 [10]
CN(C(=O)C12C3C4C1C1C2C3C41C(=O)C(C)(C)C)C(C)(C)C (stereo not drawn) | > 100 µM | > 100 µM | > 100 µM | > 100 µM | > 100 µM | > 100 µM | > 100 µM | > 100 µM | – | – | – | – | – | – | – | – | – | – | – | –
CSc1ccc(C2=NN(C(C)=O)C(c3cc(C)cs3)C2)cc1 (stereo not drawn) | > 100 µM | > 100 µM | > 100 µM | > 100 µM | > 100 µM | 97.5 µM | > 100 µM | > 100 µM | 32 µM | 39 µM | 28.4 µM | 22.1 µM | 24.9 µM | 21.8 µM | > 100 µM | 25.5 µM | 22.4 µM | 9.31 µM | – | –
CC(C)CC(=O)[O-].CC(C)CC(=O)[O-].N.N.N.N.[Co+3].[O-][Cl+3]([O-])([O-])[O-] | > 100 µM | > 100 µM | – | > 100 µM | > 100 µM | > 100 µM | > 100 µM | > 100 µM | > 100 µM | > 100 µM | – | > 100 µM | > 100 µM | – | – | > 100 µM | > 100 µM | > 100 µM | – | –
N#Cc1ccc(C#Cc2ccccc2C#CCCCCO)cc1 | 35.5 µM | 36.4 µM | 39.8 µM | > 100 µM | > 100 µM | 38.7 µM | 41 µM | 46.1 µM | 18.6 µM | 17.1 µM | 21 µM | 42.2 µM | 46 µM | 20.9 µM | 38.6 µM | 21 µM | 21.3 µM | 21.7 µM | – | –
CCCCC/C(C=C(C#N)C#N)=C/c1ccccc1 | > 100 µM | 41.3 µM | 21.3 µM | 27.7 µM | 12.3 µM | 16.5 µM | 14.6 µM | 35.3 µM | 3.34 µM | 17.4 µM | 1.3 µM | 12.4 µM | 3.61 µM | 8.11 µM | 25.5 µM | 3.11 µM | 2.76 µM | 3.8 µM | – | –
COc1ccc(OC)c(NC(=O)C(=O)C(C(C)=O)c2nc3ccc(Cl)cc3[nH]c2=O)c1 (stereo not drawn) | > 50 µM | > 50 µM | > 50 µM | > 50 µM | > 50 µM | > 50 µM | > 50 µM | > 50 µM | – | – | – | – | – | – | > 50 µM | – | – | – | – | –
O=C1CNCCCN2CCN(CCCNCC(=O)Nc3ccc(cc3)S(=O)(=O)c3ccc(cc3)NC(=O)CNCCCN3CCN(CCCNCC(=O)Nc4ccc(cc4)S(=O)(=O)c4ccc(cc4)N1)CC3)CC2 | > 56.9 µM | 90.1 µM | 99.2 µM | > 100 µM | > 67.5 µM | 24.2 µM | > 62.6 µM | > 58.5 µM | – | – | – | – | – | – | > 73.6 µM | – | – | – | – | –
O=C(N/N=C/c1ccccc1O)c1cccc([N+](=O)[O-])c1 | > 100 µM | > 100 µM | – | – | > 100 µM | > 100 µM | 68.3 µM | > 100 µM | – | – | – | – | – | – | – | – | – | – | > 100 µM | –
Clc1ccc(C2N3CCCCC3[C@@H]3c4[nH]c5ccccc5c4CCN23)cc1 (stereo partly drawn) | > 100 µM | > 100 µM | > 100 µM | > 100 µM | 49.9 µM | 90.4 µM | > 100 µM | > 100 µM | – | – | – | – | – | – | – | – | – | – | – | –
Cc1ccc(-c2c3c([nH]c(=O)c2C#N)-c2cc(F)ccc2OC3)cc1 | > 100 µM | 98.4 µM | > 100 µM | > 100 µM | > 100 µM | – | 76.6 µM | > 100 µM | > 100 µM | 55.4 µM | 82.1 µM | > 100 µM | > 100 µM | – | – | – | 23.9 µM | 86.4 µM | > 100 µM | > 100 µM
CCCCN(CCCC)C(=O)C(=O)C(C#N)c1ccc(C)cc1 (stereo not drawn) | > 100 µM | > 100 µM | > 100 µM | > 100 µM | > 100 µM | > 100 µM | > 100 µM | > 100 µM | – | – | – | – | – | – | > 100 µM | – | – | – | – | –
Cc1ccc(S(=O)(=O)C(CC(=O)N2CCCC2)C(=O)c2ccccc2)cc1 (stereo not drawn) | > 100 µM | – | > 100 µM | > 100 µM | > 100 µM | > 100 µM | > 100 µM | > 100 µM | – | – | – | – | – | – | – | – | – | – | > 100 µM | –
O=C1OCc2c1cc1ccc(O)c(OC3OC(CO)C(O)C(O)C3O)c1c2-c1ccc2c(c1)OCO2 (stereo not drawn) | > 100 µM | > 100 µM | > 100 µM | > 100 µM | > 100 µM | > 100 µM | > 100 µM | > 100 µM | – | 33.5 µM | – | 55.2 µM | – | 48.4 µM | > 100 µM | – | – | 39.5 µM | – | –
COC(=O)C1=C(C(=O)OC)C2C=CC1C1C(Cl)=C(Cl)C21 (stereo not drawn) | > 100 µM | > 100 µM | > 100 µM | > 100 µM | > 100 µM | > 100 µM | > 100 µM | > 100 µM | – | – | – | – | – | – | – | – | – | – | – | –
COC1C(CN[N+](=O)CC2OC3OC(C)(C)OC3C2OC)OC2OC(C)(C)OC21 (stereo not drawn) | > 100 µM | > 100 µM | > 100 µM | > 100 µM | > 100 µM | > 100 µM | > 100 µM | – | – | – | – | – | – | – | > 100 µM | – | – | – | – | –
CC1=C(C(=O)Nc2ccc([N+](=O)[O-])cc2)C(c2ccc(N(C)C)cc2)C(C(=O)Nc2ccc([N+](=O)[O-])cc2)=C(C)N1 | 97.9 µM | 29.8 µM | 89.5 µM | 59.6 µM | 46.9 µM | 52.6 µM | 74.6 µM | 37.6 µM | – | – | – | – | – | – | 42.3 µM | – | – | – | – | –
C=C(CN1CCc2ccccc2C1)c1ccc(C(=O)Nc2cnccn2)cc1 | > 100 µM | > 100 µM | > 100 µM | 61.2 µM | 59.5 µM | – | 73 µM | 14.7 µM | 30.2 µM | 46.6 µM | 7.77 µM | 16.7 µM | 24.1 µM | > 100 µM | > 100 µM | – | 19.1 µM | 3.17 µM | – | –
O=[N+]([O-])/C=C\c1ccc(Cl)c(Cl)c1 | 4.16 µM | 7.61 µM | 2.88 µM | 17.5 µM | – | 6.05 µM | 3.73 µM | 5.08 µM | 1.94 µM | 2.56 µM | 1.32 µM | 4.47 µM | – | 12 µM | 27.9 µM | 1.46 µM | 1.83 µM | 0.379 µM | – | –
Cn1cc(-c2cnc3ccc(NC(=O)Nc4ccc(F)c(Br)c4)cc3n2)cn1 | 4.34 µM | 4.13 µM | 5.57 µM | 4.8 µM | – | 3.55 µM | 3.73 µM | – | 1.83 µM | 1.97 µM | 2.05 µM | 1.97 µM | – | 1.52 µM | 3.64 µM | 1.56 µM | 1.89 µM | – | – | –
Cc1ccc(CS/C(=C\c2ccc([N+](=O)[O-])cc2)C(=O)c2ccc(F)cc2)cc1 | 19.4 µM | 40.5 µM | – | 71.8 µM | 4.26 µM | 10.4 µM | 6.48 µM | > 100 µM | 3.42 µM | 15.3 µM | – | 19.2 µM | 1.78 µM | 3.17 µM | 15 µM | 2.86 µM | 2.25 µM | 3.21 µM | – | –
CSc1cc(N=Nc2nc3ccccc3s2)c2ccccc2c1O | 39 µM | 22 µM | 20.3 µM | 11.9 µM | – | – | 27.6 µM | 15.2 µM | 13.6 µM | 8.41 µM | 10.1 µM | 0.0869 µM | – | – | – | – | 11.5 µM | 3.6 µM | 19.4 µM | 0.973 µM
CCOc1ccc2c(c1)[n+]([O-])c(S(=O)(=O)c1ccc(C)cc1)c(N)[n+]2[O-] | > 100 µM | > 100 µM | > 100 µM | > 100 µM | > 100 µM | > 100 µM | > 100 µM | > 100 µM | – | – | – | – | – | – | > 100 µM | – | – | – | – | –
N#CC(C(=N/O)/C(=N/O)C(C#N)c1ccc(Cl)cc1)c1ccc(Cl)cc1 (stereo not drawn) | > 100 µM | > 100 µM | > 100 µM | > 100 µM | > 100 µM | > 100 µM | > 100 µM | – | – | – | – | – | – | – | > 100 µM | – | – | – | – | –
CCCCNC1=C(C(=O)OCC)C(=O)CO1 | > 100 µM | > 100 µM | > 100 µM | > 100 µM | > 100 µM | > 100 µM | > 100 µM | > 100 µM | – | – | – | – | – | – | > 100 µM | – | – | – | – | –
N=C1CSC2=NC3=C(CCC/C3=C\c3ccccc3)C(c3ccccc3)N12 (stereo not drawn) | 19.5 µM | 5.56 µM | 29.2 µM | 23.7 µM | 11.5 µM | 39.3 µM | 19.4 µM | 18.4 µM | – | – | – | – | – | – | 35.1 µM | – | – | – | – | –
COC(=O)C[C@H]1CCC2(OCCO2)[C@]1(C)C(=O)OC | > 100 µM | > 100 µM | > 100 µM | > 100 µM | > 100 µM | > 100 µM | > 100 µM | > 100 µM | – | – | – | – | – | – | – | – | – | – | – | –
COc1ccccc1C1C(C(=O)Nc2ccccc2)=C(C)NC(C)=C1C(=O)Nc1ccccc1 | > 100 µM | > 100 µM | > 100 µM | > 100 µM | > 100 µM | > 100 µM | > 100 µM | > 100 µM | – | – | – | – | – | – | > 100 µM | – | – | – | – | –
CC(=O)Nc1ccccc1Sc1ccccc1 | > 100 µM | > 100 µM | > 100 µM | > 100 µM | > 100 µM | > 100 µM | > 100 µM | > 100 µM | – | – | – | – | – | – | > 100 µM | – | – | – | – | –
O=C1C=CC(=Nc2ccc3c(c2)C(Br)c2ccccc2-3)O1 (stereo not drawn) | > 100 µM | – | – | > 100 µM | – | > 100 µM | > 100 µM | > 100 µM | – | – | – | – | – | – | – | – | – | – | > 100 µM | –
